Where a SMILES comes first, the peptide text is derived from it. The star is where a group is joined. Cbz = O=C(OCc1ccccc1)*
System: HIF-1α
Assay: Western blot of HIF-1α expression in HCT116 cells
Format: cell-based
Conditions: for HIF-1α expression increased by Smurf2 knockdown, effect of treatment / HIF-1α expression: HCT116 cells; for HIF-1α expression increased by Smurf2 knockdown, effect of treatment: Smurf2 siRNA 48 hours, normoxia 6 hours, Ro3306 5 μM, palbociclib 10 μM, abemaciclib 1 μM; for HIF-1α expression: normoxia
Procedure: HCT116 cells were obtained from American Type Culture Collection (ATCC) and were maintained according to ATCC recommendation in McCoy's 5A medium (Hyclone) with 10% fetal bovine serum (FBS) (Hyclone) and 1% penicillin/streptomycin (P/S) (Corning). Cells were regularly tested for mycoplasma and authenticated. Cells were maintained at 37° C. in 5% CO2. Hypoxia treatment was performed in a hypoxia chamber (In vivo2, Ruskinn) which maintains 0.5% O2 and 5% CO2 at 37° C.
Plasmid expression was performed by 24 hours transfection using Opti-MEM (Thermo Fisher Scientific) and Lipofectamine 2000 (Life Technologies). Knockdown experiments were performed by siRNA transfection for 48 hours with Opti-MEM and Lipofectamine RNAiMAX (Life Technologies), according to the manufacturer's protocol.
Treated cells were lysed in RIPA buffer (Sigma). Protein concentrations were determined using a BCA Protein Assay Kit (Life Technologies). Equal amounts of total protein were boiled with NuPAGE™ LDS sample buffer (Thermo Fisher Scientific) and reducing agent (Invitrogen) or 2-mercaptoethanol. Samples were analyzed with SDS-PAGE. Proteins were transferred to an Immobilon-P PVDF membrane (EMD Millipore). Primary and secondary antibodies were added in order. Signals were detected after addition of the ECL western blotting substrate (Thermo Fisher Scientific).

Compound	HIF-1α expression increased by Smurf2 knockdown, effect of treatment	HIF-1α expression increased by Smurf2 knockdown, effect of treatment (listed as Ro3306)	HIF-1α expression upon Smurf2 overexpression (HCT116 cells transfected with myc-Smurf2 plasmid, 6 hours, dose-dependent)	HIF-1α expression (2 μM, 6 hours)	HIF-1α expression (5 μM, 6 hours)
O=C1NC(=NCc2cccs2)S/C1=C\c1ccc2ncccc2c1 [Ro-3306]	not reversed	further increased	–	–	–
CC(C)C[C@@H](C=O)NC(=O)[C@H](CC(C)C)NC(=O)[C@H](CC(C)C)NC(=O)OCc1ccccc1 [MG132] (Cbz-Leu-Leu-Leu-aldehyde)	–	–	partially rescued	increased	more robustly
